Measured values published in patent publication US20260001871A1, “TRIAZOLE DERIVATIVES AS MODULATORS OF MAS-RELATED G-PROTEIN RECEPTOR D” (ESCIENT PHARMACEUTICALS, INC., priority 2022, published 2026).

Molecular target: human MRGPRD (Homo sapiens, UniProt Q8TDS7)
Test: MRGPRD antagonist activity, IP-One HTRF assay in CHO cells stably expressing human MRGPRD (versus 100 μM β-Alanine agonist)
Assay type: cell-based
Method: Chinese Hamster Ovary (CHO) cells stably expressing human MRGPRD (Eurofins, San Diego CA) were plated in a 384-well plate at 20,000 cells per well in 12 μL of Optimem (Fisher Scientific 11-058-021). Plates were kept in the incubator at 37° C. overnight. Antagonists were solubilized at a concentration of 10 mM in DMSO, and the agonists were solubilized to stock concentrations of either 50 mM in H2O (β-Alanine) or 10 mM in DMSO (all others) and then diluted in assay buffer (final concentrations of 5.7 mM Tris-HCl, 43 mM NaCl, 50 mM LiCl, pH=8). The concentration of DMSO was normalized across the plate. Antagonists were added to the plate using a Tecan D300 Digital Dispenser at nanoliter/picoliter volumes and 2 μL of agonists in assay buffer were added to each well for a final assay volume of 14 μL. Plates were covered and incubated for 1 h at 37° C. and then for 1 h at room temperature. IP-1 standards and HTRF detection reagents were added according to an IP-One—Gq Kit purchased from Cisbio (part number 621PAPEJ) and incubated in the dark for 1 h at room temperature. Assay plates were read on either a Molecular Devices SpectraMax iD5 plate reader or a BMG ClarioStar plate reader. The HTRF ratio was calculated form the raw data and graphed using GraphPad Prism to calculate IC50 values. Data are expressed as average IC50 values and average percent antagonism calculated as a percent of the maximum efficacy response. For these studies, the variability of the data was assessed by determining the standard error of mean (SEM).
The activity ranges are denoted as follows: “+++++” denotes antagonist activity<100 nM; “++++” denotes antagonist activity between 100 and 500 nM; “+++” denotes activity between 500 and 1000 nM; “++” denotes activity between 1000 and 3000 nM; and “+” denotes activity>3000 nM.

Sequence of human MRGPRD (Q8TDS7 whole entry): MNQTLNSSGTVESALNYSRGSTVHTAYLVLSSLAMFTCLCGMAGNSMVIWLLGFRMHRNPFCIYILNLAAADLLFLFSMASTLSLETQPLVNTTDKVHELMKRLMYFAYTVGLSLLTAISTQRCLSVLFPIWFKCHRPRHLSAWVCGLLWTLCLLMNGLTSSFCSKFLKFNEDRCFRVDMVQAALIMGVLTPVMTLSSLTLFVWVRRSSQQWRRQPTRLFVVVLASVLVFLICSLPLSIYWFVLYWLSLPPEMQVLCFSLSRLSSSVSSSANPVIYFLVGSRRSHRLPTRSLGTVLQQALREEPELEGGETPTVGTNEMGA

| SMILES | IC50 |
| --- | --- |
| Cc1ccccc1-c1ccc(-n2nnc(C(=O)Nc3ccncc3)c2C2CC2)cc1 [Compound 7-96] | 100 to 500 nM |
| O=C(Nc1ccncc1)c1nnn(-c2ccc(C3CCCC3)cc2)c1C1CC1 [Compound 2-11] | 1000 to 3000 nM |
| O=C(Nc1ccncc1)c1nnn(-c2ccc(-c3ccccc3CO)cc2)c1C1CC1 [Compound 7-151] | 500 to 1000 nM |
| CCc1ccccc1-c1ccc(-n2nnc(C(=O)Nc3ccncc3)c2C2CC2)cc1 [Compound 7-208] | 1000 to 3000 nM |
| Cc1nn2ccccc2c1-c1ccc(-n2nnc(C(=O)Nc3ccncc3)c2C2CC2)cc1 [Compound 7-18] | < 100 nM |
| COc1ccccc1-c1ccc(-n2nnc(C(=O)Nc3ccncc3)c2C2CC2)cc1C [Compound 7-261] | 500 to 1000 nM |
| Cn1cc(C#N)c(-c2ccc(-n3nnc(C(=O)Nc4ccncc4)c3C3CC3)cc2)n1 [Compound 7-184] | 1000 to 3000 nM |
| CCn1nc(C)c(-c2ccc(-n3nnc(C(=O)Nc4ccnc(C)c4)c3C3CC3)c(F)c2)c1C [Compound 7-219] | < 100 nM |
| Cc1cc(NC(=O)c2nnn(-c3ccc(-c4ccc(C#N)cc4)nc3)c2C2CC2)ccn1 [Compound 7-242] | 500 to 1000 nM |
| Cc1ccc(-n2nnc(C(=O)Nc3ccnc(C)c3)c2C2CC2)cc1 [Compound 1-4, 5-cyclopropyl-N-(2-methylpyridin-4-yl)-1-(p-tolyl)-1H-1,2,3-triazole-4-carboxamide] | 100 to 500 nM |
| O=C(Nc1ccncc1)c1nnn(-c2ccc(-c3ccc(Cl)cc3)cc2)c1C1CC1 [Compound 7-90] | 100 to 500 nM |
| CC(=O)c1ccc(-c2cccc(-n3nnc(C(=O)Nc4ccncc4)c3C3CC3)c2)cc1C [Compound 7-249] | 500 to 1000 nM |
| CC(=O)c1ccccc1-c1ccc(-n2nnc(C(=O)Nc3ccncc3)c2C2CC2)cc1 [Compound 7-134] | 500 to 1000 nM |
| CC(=O)c1ccc(-n2nnc(C(=O)Nc3ccncc3)c2C2CC2)cc1 [Compound 2-10] | 1000 to 3000 nM |
| COc1ncc(-c2ccc(-n3nnc(C(=O)Nc4ccncc4)c3C3CC3)cc2)cn1 [Compound 7-194] | 1000 to 3000 nM |
| CCc1ccc(-c2cccc(-n3nnc(C(=O)Nc4ccncc4)c3C3CC3)c2)cc1 [Compound 7-284] | 500 to 1000 nM |
| Cc1n[nH]c(C)c1-c1ccc(-n2nnc(C(=O)Nc3ccncc3)c2C2CC2)cc1 [Compound 7-102] | 100 to 500 nM |

| SMILES | IC50 |
| --- | --- |
| Cn1ccnc1-c1ccc(-n2nnc(C(=O)Nc3ccncc3)c2C2CC2)cc1 [Compound 7-163] | 1000 to 3000 nM |
| Cc1cccc(-c2cccc(-n3nnc(C(=O)Nc4ccncc4)c3C3CC3)c2)c1 [Compound 7-321] | 1000 to 3000 nM |
| Cn1cnc(-c2ccc(-n3nnc(C(=O)Nc4ccncc4)c3C3CC3)cc2)c1 [Compound 7-124] | 500 to 1000 nM |
| O=C(Nc1ccncc1)c1nnn(-c2cccc(-c3cccc(F)c3)c2)c1C1CC1 [Compound 7-308] | 1000 to 3000 nM |
| CC(C)(C)n1cc(-c2cccc(-n3nnc(C(=O)Nc4ccncc4)c3C3CC3)c2)cn1 [Compound 7-288] | 1000 to 3000 nM |
| CC(C)n1cc(-c2ccc(-n3nnc(C(=O)Nc4ccncc4)c3C3CC3)cc2)cn1 [Compound 7-175] | 1000 to 3000 nM |
| Cc1ccc(-n2nnc(C(=O)Nc3ccncc3)c2C(C)C)cc1 [Compound 1-19] | 500 to 1000 nM |
| CCc1ccc(-n2nnc(C(=O)Nc3ccncc3)c2C2CC2)cc1 [Compound 3-2] | 1000 to 3000 nM |
| N#CCc1ccccc1-c1ccc(-n2nnc(C(=O)Nc3ccncc3)c2C2CC2)cc1 [Compound 7-154] | 500 to 1000 nM |
| Cc1nn(C)c(C)c1-c1ccc(-n2nnc(C(=O)Nc3ccncc3)c2C2CC2)cc1 [Compound 7-33] | 100 to 500 nM |
| Cc1nn(-c2ccccc2)cc1-c1cccc(-n2nnc(C(=O)Nc3ccncc3)c2C2CC2)c1 [Compound 7-281] | 500 to 1000 nM |
| O=C(O)c1cccc(-c2ccc(-n3nnc(C(=O)Nc4ccncc4)c3C3CC3)cc2)c1 [Compound 7-213] | > 3000 nM |
| CC(=O)c1ccc(-c2ccc(-n3nnc(C(=O)Nc4ccncc4)c3C3CC3)cc2)c(C)c1 [Compound 7-42] | 100 to 500 nM |
| O=C(Nc1ccncc1)c1nnn(-c2ccc(-c3ccn(-c4ccccc4)n3)cc2)c1C1CC1 [Compound 7-103] | 100 to 500 nM |
| Cc1ccc(-n2nnc(C(=O)Nc3ccncc3)c2C2CCCC2)cc1 [Compound 3-6] | 1000 to 3000 nM |
| Cc1cc(-c2ccc(-n3nnc(C(=O)Nc4ccncc4)c3C3CC3)cc2)n[nH]1 [Compound 7-206] | 1000 to 3000 nM |

Results, then the compound that gave them:

| IC50 | SMILES |
| --- | --- |
| 1000 to 3000 nM | CCn1nc(C)c(-c2ccc(-n3nnc(C(=O)N4Cc5cnn(C)c5C4)c3C3CC3)cc2)c1C [Compound 9-32] |
| 500 to 1000 nM | Cc1nn(-c2ccccc2)c(C)c1-c1ccc(-n2nnc(C(=O)N3Cc4cnn(C)c4C3)c2C2CC2)cc1 [Compound 9-29] |
| 100 to 500 nM | CCc1cc(NC(=O)c2nnn(-c3ccc(-c4c(C)nn5cccnc45)cc3)c2C2CC2)ccn1 [Compound 10-4] |
| > 3000 nM | O=C(Nc1cnn(C2CC2)c1)c1nnn(-c2ccc(-c3ccccc3)cc2)c1C1CC1 [Compound 14-87] |
| 100 to 500 nM | Cc1nn(C)c(C)c1-c1ccc(-n2nnc(C(=O)Nc3ccncc3)c2C2CC2)nc1 [Compound 11-1, 5-cyclopropyl-N-(pyridin-4-yl)-1-(5-(1,3,5-trimethyl-1H-pyrazol-4-yl)pyridin-2-yl)-1H-1,2,3-triazole-4-carboxamide] |
| 1000 to 3000 nM | O=C(NCc1cn[nH]c1)c1nnn(-c2ccc(-c3ccccc3)cc2)c1C1CC1 [Compound 14-36] |
| 1000 to 3000 nM | NC(=O)c1ccc(-c2ccc(-n3nnc(C(=O)NC4(c5cccnc5)CC4)c3C3CC3)cc2)cn1 [Compound 18-10] |
| 500 to 1000 nM | Cc1cc(NC(=O)c2nnn(C3CC=C(c4ccc(F)cc4)CC3)c2C2CC2)ccn1 (centres unmarked) [Compound 12-4] |
| 100 to 500 nM | Cc1nn(C)c(C)c1-c1ccc(-n2nnc(C(=O)NC3C(C)(C)C3(C)C)c2C(C)C)cc1 [Compound 17-24] |
| > 3000 nM | CC(C)c1c(C(=O)NC2(c3cccnc3)CC2)nnn1-c1ccc(-c2ccccc2)cc1 [Compound 18-30] |
| 500 to 1000 nM | Cc1n[nH]c2ncnc(NC(=O)c3nnn(-c4ccc(-c5ccccc5)cc4)c3C3CC3)c12 [Compound 14-25] |
| 500 to 1000 nM | Cc1nn(C)c(C)c1-c1ccc(-n2nnc(C(=O)Nc3cccnc3)c2C(C)C)cc1 [Compound 17-29] |
| 100 to 500 nM | COc1ccc(C2(NC(=O)c3nnn(-c4ccc(-c5ccc(C#N)cc5C)cc4)c3C3CC3)CC2)cn1 [Compound 9-24] |
| 1000 to 3000 nM | Cc1ccc(-n2nnc(C(=O)Nc3ccnc(C(F)(F)F)c3)c2C(C)C)cc1 [Compound 24-1, 5-isopropyl-1-(p-tolyl)-N-(2-(trifluoromethyl)pyridin-4-yl)-1H-1,2,3-triazole-4-carboxamide] |
| 1000 to 3000 nM | Cc1cn2c(NC(=O)c3nnn(-c4ccc(-c5ccccc5)cc4)c3C3CC3)cccc2n1 [Compound 14-66] |
| 1000 to 3000 nM | Cc1nn(C)c(C)c1-c1ccc(-n2nnc(C(=O)Nc3ccc(NS(C)(=O)=O)cc3)c2C2CC2)cc1 [Compound 9-34] |
| 100 to 500 nM | CCn1cc(CNC(=O)c2nnn(-c3ccc(-c4c(C)nn(C)c4C)cc3)c2C2CC2)cn1 [Compound 15-19] |
| 1000 to 3000 nM | Cc1cc(NC(=O)c2nnn(-c3ccc(-c4ccccc4)cc3)c2C2CC2)ccc1F [Compound 14-58] |
| > 3000 nM | CC(C)n1cc(NC(=O)c2nnn(-c3ccc(-c4ccccc4)cc3)c2C2CC2)cn1 [Compound 14-73] |
| 1000 to 3000 nM | CCn1cc(CNC(=O)c2nnn(-c3ccc(-c4ccc(C#N)cc4)cc3F)c2C2CC2)cn1 [Compound 22-3] |
